Measurements: the supplement of paper PMC10733146

Key:
Test in all cases: viability relative to DMSO control (fraction); higher = less drug effect (more viable cells)
Conditions in all cases: 48 h
[1] = system: primary AML patient cells (S089)
Procedure, shortened: (§1)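 Primary mononuclear tumour cells (Ficoll-isolated from blood or bone marrow, or processed lymph node; fresh or cryopreserved) were plated at 4 × 10^4 cells per well in 384-well plates with pre-plated compounds at five concentrations, one well each. Medium was RPMI-1640 with penicillin/streptomycin, L-glutamine and human serum, at 37 °C and 5% CO2 for 48 h. Viability was read as CellTiter-Glo luminescence relative to the median of 16 inner DMSO wells.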

[2] = system: primary AML patient cells (S037)
Procedure, shortened: as §1

[3] = system: primary CLL patient cells (S043)
Procedure, shortened: as §1

[4] = system: primary T-PLL patient cells (S008)
Procedure, shortened: as §1

[5] = system: primary AML patient cells (S091)
Procedure, shortened: as §1

[6] = system: primary AML patient cells (S071)
Procedure, shortened: as §1

[7] = system: primary DLBCL patient cells (S082)
Procedure, shortened: as §1

[8] = system: primary AML patient cells (S055)
Procedure, shortened: as §1

[9] = system: primary MCL patient cells (S053)
Procedure, shortened: as §1

[10] = system: primary AML patient cells (S081)
Procedure, shortened: as §1

[11] = system: primary AML patient cells (S021)
Procedure, shortened: as §1

[12] = system: primary AML patient cells (S009)
Procedure, shortened: as §1

[13] = system: primary B-PLL patient cells (S016)
Procedure, shortened: as §1

[14] = system: primary BL patient cells (S005)
Procedure, shortened: as §1

[15] = system: primary AML patient cells (S002)
Procedure, shortened: as §1

[16] = system: primary AML patient cells (S060)
Procedure, shortened: as §1

[17] = system: primary AML patient cells (S025)
Procedure, shortened: as §1

[18] = system: primary AML patient cells (S072)
Procedure, shortened: as §1

[19] = system: primary AML patient cells (S017)
Procedure, shortened: as §1

[20] = system: primary MCL patient cells (S068)
Procedure, shortened: as §1

## CC(=O)Nc1cccc(-n2c(=O)n(C3CC3)c(=O)c3c(Nc4ccc(I)cc4F)n(C)c(=O)c(C)c32)c1 [Trametinib]
[1]; 0.0008 µM
  viability: 0.635
[1]; 0.004 µM
  viability: 0.57
[1]; 0.02 µM
  viability: 0.558
[1]; 0.1 µM
  viability: 0.529
[1]; 0.5 µM
  viability: 0.539
[2]; 0.0008 µM
  viability: 0.957
[2]; 0.004 µM
  viability: 0.969
[2]; 0.02 µM
  viability: 0.921
[2]; 0.1 µM
  viability: 0.899
[2]; 0.5 µM
  viability: 0.915
[3]; 0.0008 µM
  viability: 0.825
[3]; 0.004 µM
  viability: 0.769
[3]; 0.02 µM
  viability: 0.777
[3]; 0.1 µM
  viability: 0.748
[3]; 0.5 µM
  viability: 0.744
[4]; 0.0008 µM
  viability: 0.965
[4]; 0.004 µM
  viability: 1.05
[4]; 0.02 µM
  viability: 0.955
[4]; 0.1 µM
  viability: 1.07
[4]; 0.5 µM
  viability: 0.905
[5]; 0.0008 µM
  viability: 0.438
[5]; 0.004 µM
  viability: 0.308
[5]; 0.02 µM
  viability: 0.288
[5]; 0.1 µM
  viability: 0.299
[5]; 0.5 µM
  viability: 0.272
[6]; 0.0008 µM
  viability: 0.8
[6]; 0.004 µM
  viability: 0.789
[6]; 0.02 µM
  viability: 0.757
[6]; 0.1 µM
  viability: 0.744
[6]; 0.5 µM
  viability: 0.708
[7]; 0.0008 µM
  viability: 0.835
[7]; 0.004 µM
  viability: 0.828
[7]; 0.02 µM
  viability: 0.727
[7]; 0.1 µM
  viability: 0.702
[7]; 0.5 µM
  viability: 0.651
[8]; 0.0008 µM
  viability: 0.797
[8]; 0.004 µM
  viability: 0.582
[8]; 0.02 µM
  viability: 0.585
[8]; 0.1 µM
  viability: 0.559
[8]; 0.5 µM
  viability: 0.558
[9]; 0.0008 µM
  viability: 0.885
[9]; 0.004 µM
  viability: 0.899
[9]; 0.02 µM
  viability: 0.818
[9]; 0.1 µM
  viability: 0.806
[9]; 0.5 µM
  viability: 0.733
[10]; 0.0008 µM
  viability: 0.999
[10]; 0.004 µM
  viability: 0.935
[10]; 0.02 µM
  viability: 0.742
[10]; 0.1 µM
  viability: 0.651
[10]; 0.5 µM
  viability: 0.567
[11]; 0.0008 µM
  viability: 0.864
[11]; 0.004 µM
  viability: 0.697
[11]; 0.02 µM
  viability: 0.672
[11]; 0.1 µM
  viability: 0.598
[11]; 0.5 µM
  viability: 0.605
[12]; 0.0008 µM
  viability: 1.09
[12]; 0.004 µM
  viability: 1.17
[12]; 0.02 µM
  viability: 1.24
[12]; 0.1 µM
  viability: 1.24
[12]; 0.5 µM
  viability: 1.04
[13]; 0.0008 µM
  viability: 0.939
[13]; 0.004 µM
  viability: 1.05
[13]; 0.02 µM
  viability: 0.986
[13]; 0.1 µM
  viability: 0.933
[13]; 0.5 µM
  viability: 0.885
[14]; 0.0008 µM
  viability: 0.943
[14]; 0.004 µM
  viability: 0.964
[14]; 0.02 µM
  viability: 1.01
[14]; 0.1 µM
  viability: 0.984
[14]; 0.5 µM
  viability: 0.912
[15]; 0.0008 µM
  viability: 0.398
[15]; 0.004 µM
  viability: 0.432
[15]; 0.02 µM
  viability: 0.364
[15]; 0.1 µM
  viability: 0.437
[15]; 0.5 µM
  viability: 0.402
[16]; 0.0008 µM
  viability: 1.04
[16]; 0.004 µM
  viability: 0.797
[16]; 0.02 µM
  viability: 0.681
[16]; 0.1 µM
  viability: 0.657
[16]; 0.5 µM
  viability: 0.642
[17]; 0.0008 µM
  viability: 0.74
[17]; 0.004 µM
  viability: 0.618
[17]; 0.02 µM
  viability: 0.644
[17]; 0.1 µM
  viability: 0.561
[17]; 0.5 µM
  viability: 0.554
[18]; 0.0008 µM
  viability: 0.907
[18]; 0.004 µM
  viability: 0.859
[18]; 0.02 µM
  viability: 0.751
[18]; 0.1 µM
  viability: 0.732
[18]; 0.5 µM
  viability: 0.69
[19]; 0.0008 µM
  viability: 1.02
[19]; 0.004 µM
  viability: 1.1
[19]; 0.02 µM
  viability: 0.888
[19]; 0.1 µM
  viability: 0.852
[19]; 0.5 µM
  viability: 0.719
[20]; 0.0008 µM
  viability: 0.921
[20]; 0.004 µM
  viability: 0.8
[20]; 0.02 µM
  viability: 0.791
[20]; 0.1 µM
  viability: 0.727
[20]; 0.5 µM
  viability: 0.7

## C/C=C1\NC(=O)[C@H]2CSSCC/C=C/[C@H](CC(=O)N[C@H](C(C)C)C(=O)N2)OC(=O)[C@H](C(C)C)NC1=O [Romidepsin]
[1]; 0.00032 µM
  viability: 0.932
[1]; 0.0016 µM
  viability: 0.979
[1]; 0.008 µM
  viability: 0.302
[1]; 0.04 µM
  viability: 0.0361
[1]; 0.2 µM
  viability: 0.0536
[2]; 0.00032 µM
  viability: 1.06
[2]; 0.0016 µM
  viability: 0.911
[2]; 0.008 µM
  viability: 0.554
[2]; 0.04 µM
  viability: 0.516
[2]; 0.2 µM
  viability: 0.508
[3]; 0.00032 µM
  viability: 0.92
[3]; 0.0016 µM
  viability: 0.83
[3]; 0.008 µM
  viability: 0.369
[3]; 0.04 µM
  viability: 0.0933
[3]; 0.2 µM
  viability: 0.084
[4]; 0.00032 µM
  viability: 1.02
[4]; 0.0016 µM
  viability: 0.895
[4]; 0.008 µM
  viability: 0.738
[4]; 0.04 µM
  viability: 0.772
[4]; 0.2 µM
  viability: 0.758
[5]; 0.00032 µM
  viability: 0.803
[5]; 0.0016 µM
  viability: 0.715
[5]; 0.008 µM
  viability: 0.169
[5]; 0.04 µM
  viability: 0.116
[5]; 0.2 µM
  viability: 0.117
[6]; 0.00032 µM
  viability: 0.887
[6]; 0.0016 µM
  viability: 0.626
[6]; 0.008 µM
  viability: 0.209
[6]; 0.04 µM
  viability: 0.187
[6]; 0.2 µM
  viability: 0.182
[7]; 0.00032 µM
  viability: 1.02
[7]; 0.0016 µM
  viability: 0.878
[7]; 0.008 µM
  viability: 0.111
[7]; 0.04 µM
  viability: 0.0272
[7]; 0.2 µM
  viability: 0.029
[8]; 0.00032 µM
  viability: 0.981
[8]; 0.0016 µM
  viability: 0.941
[8]; 0.008 µM
  viability: 0.524
[8]; 0.04 µM
  viability: 0.145
[8]; 0.2 µM
  viability: 0.072
[9]; 0.00032 µM
  viability: 0.951
[9]; 0.0016 µM
  viability: 0.191
[9]; 0.008 µM
  viability: 0.0849
[9]; 0.04 µM
  viability: 0.0845
[9]; 0.2 µM
  viability: 0.0907
[10]; 0.00032 µM
  viability: 0.976
[10]; 0.0016 µM
  viability: 0.947
[10]; 0.008 µM
  viability: 0.283
[10]; 0.04 µM
  viability: 0.0359
[10]; 0.2 µM
  viability: 0.0368
[11]; 0.00032 µM
  viability: 0.88
[11]; 0.0016 µM
  viability: 0.789
[11]; 0.008 µM
  viability: 0.353
[11]; 0.04 µM
  viability: 0.269
[11]; 0.2 µM
  viability: 0.222
[12]; 0.00032 µM
  viability: 1.02
[12]; 0.0016 µM
  viability: 0.614
[12]; 0.008 µM
  viability: 0.308
[12]; 0.04 µM
  viability: 0.24
[12]; 0.2 µM
  viability: 0.199
[13]; 0.00032 µM
  viability: 0.91
[13]; 0.0016 µM
  viability: 0.807
[13]; 0.008 µM
  viability: 0.0756
[13]; 0.04 µM
  viability: 0.055
[13]; 0.2 µM
  viability: 0.073
[14]; 0.00032 µM
  viability: 1
[14]; 0.0016 µM
  viability: 0.948
[14]; 0.008 µM
  viability: 0.63
[14]; 0.04 µM
  viability: 0.564
[14]; 0.2 µM
  viability: 0.538
[15]; 0.00032 µM
  viability: 1.12
[15]; 0.0016 µM
  viability: 0.73
[15]; 0.008 µM
  viability: 0.283
[15]; 0.04 µM
  viability: 0.265
[15]; 0.2 µM
  viability: 0.287
[16]; 0.00032 µM
  viability: 1.07
[16]; 0.0016 µM
  viability: 1.05
[16]; 0.008 µM
  viability: 0.464
[16]; 0.04 µM
  viability: 0.0458
[16]; 0.2 µM
  viability: 0.045
[17]; 0.00032 µM
  viability: 0.889
[17]; 0.0016 µM
  viability: 0.812
[17]; 0.008 µM
  viability: 0.299
[17]; 0.04 µM
  viability: 0.381
[17]; 0.2 µM
  viability: 0.441
[18]; 0.00032 µM
  viability: 0.97
[18]; 0.0016 µM
  viability: 0.671
[18]; 0.008 µM
  viability: 0.243
[18]; 0.04 µM
  viability: 0.192
[18]; 0.2 µM
  viability: 0.187
[19]; 0.00032 µM
  viability: 1.02
[19]; 0.0016 µM
  viability: 0.866
[19]; 0.008 µM
  viability: 0.29
[19]; 0.04 µM
  viability: 0.302
[19]; 0.2 µM
  viability: 0.332
[20]; 0.00032 µM
  viability: 0.904
[20]; 0.0016 µM
  viability: 0.298
[20]; 0.008 µM
  viability: 0.118
[20]; 0.04 µM
  viability: 0.0914
[20]; 0.2 µM
  viability: 0.0996
